Assay results as given in US10172378B2, “Mono- or bicyclic carboxylic acids as off-note blockers” (Givaudan, S.A., priority 2007, dated 2019).
Like-named read-outs stand apart in the source and are kept apart here.

Target: T1, human TAS2R44 bitter taste receptor (Homo sapiens, UniProt P59538, L162M)
T1 construct: The TAS2R44 construct contains RSS tag, TAS2R44, and the HSV tag which are fused in frame; expressed in transfected cells; host or cells: HEK293T cells stably expressing Galpha16-gustducin44
T1 sequence (P59538 with tags, fused parts or gaps L162M): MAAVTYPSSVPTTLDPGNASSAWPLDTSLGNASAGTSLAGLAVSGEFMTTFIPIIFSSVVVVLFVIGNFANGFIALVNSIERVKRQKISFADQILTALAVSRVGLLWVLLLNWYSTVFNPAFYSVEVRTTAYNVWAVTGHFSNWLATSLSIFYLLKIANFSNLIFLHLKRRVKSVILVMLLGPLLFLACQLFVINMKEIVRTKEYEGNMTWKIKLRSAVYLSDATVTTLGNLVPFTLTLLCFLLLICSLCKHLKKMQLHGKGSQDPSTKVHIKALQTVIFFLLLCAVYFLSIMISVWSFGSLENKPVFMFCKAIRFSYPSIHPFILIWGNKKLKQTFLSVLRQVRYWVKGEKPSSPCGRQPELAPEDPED
Test: TAS2R44 bitter taste receptor Fluo-4 calcium assay for IC50 determination
Type: cell-based
Protocol: A taste receptor screen and concentration-response analysis was performed and from results inhibitory concentration (IC) IC50 values can be calculated by nonlinear regression using the function f(x)=(a−d)/(1+(x/C)^nh)+d; with a=minimum signal, d=maximum signal, nh=hill coefficient, C=IC50 and x=concentration of antagonist. IC50 is the molar concentration of an antagonist which produces 50% of the maximum possible inhibitory response for that antagonist.
TAS2R44 Bitter Taste Receptor Assay for IC 50 Determination
The full length gene of human TAS2R44 was amplified by polymerase chain reaction (PCR) using gene-specific primers that span the entire coding region as described in WO 2004/029087.
The TAS2R44 cDNA was subcloned into an expression cassette based on either of the following plasmids/expression vectors: pcDNA3.1Zeo (Invitrogen). These vectors contain within their multiple cloning sites the nucleotide sequence coding for the first 45 amino acids of the rat somatostatin receptor subtype 3 (RSS tag) to facilitate cell surface targeting of the transgene (SEQ ID #4) and the nucleotide sequence coding for the herpes simplex virus (HSV) glycoprotein D epitope (HSV epitope in aminoterminal to carboxyterminal direction, HSV tag). (SEQ ID #3) for facilitating immunocytochemical detection.
The TAS2R44 construct contains RSS tag, TAS2R44, and the HSV tag which are fused in frame to allow translation into the receptor protein and the resulting receptor cDNA.
This transfected expression vector is called pcDNA3.1Zeo-TAS2R44 (SEQ ID #1) and allows for expression of the TAS2R44 protein (SEQ ID #2).
A cell line that stably expresses the human bitter taste receptor (TAS2R44) was generated by transfecting pcDNA3.1Zeo-TAS2R44 into HEK293T/Gα16-gustducin 44 cells (both formed as described in under 1) above). The host cell line HEK-293T is commercially available from the American […] (catalog #CRL-1573).
On day 0, the HEK293T Gα16-gustducin44 cells were seeded in a 6-well plate at a density of 900,000 cells per well and grown over night in selective growth medium (DMEM with 10% (v/v) heat-inactivated fetal bovine serum, 2 mM L-glutamine, 100 units/ml penicillin, 100 μg/ml streptomycin, 200 μg/ml G418 and 200 μg/ml zeocin). On day 1, the medium was exchanged with 2 ml of antibiotic-free and serum-free growth medium. 10 μl Lipofectamine 2000 was dissolved in 250 μl DMEM and incubated for 5 minutes at room temperature. In parallel, 4 μg TAS2R44 vector DNA were dissolved in 250 μl DMEM. These two resulting solutions are mixed and incubated for 20 minutes at room temperature before they are added to the cells into the cell culture medium. After 4 hours, the medium is replaced with antibiotic-free, serum-containing growth medium.
Fluo-4_AM (Invitrogen) is a fluorescent indicator of intracellular calcium dynamics (change in concentration) and allows monitoring changes in the calcium concentration, particularly an increase in response to receptor activation occurring after agonist exposure.
At day 0, the HEK293T cell line stably expressing Gα16-gustducin44 and TAS2R44 formed as described under 2) was seeded in antibiotic-free growth medium (standard DMEM with 10% (v/v) heat-inactivated fetal bovine serum, 2 mM L-glutamine […]) into black wall/clear bottom 96-well plates, coated with poly(ethylenimine) (0.005% v/v) at a concentration of 15,000 cells per well and incubated for 48 hours in humidified atmosphere (37° C., 5% CO2).
At the time of the assay, the growth medium was discarded and the cells were further incubated in a humidified atmosphere (37° C., 5% CO2) for 1 hour with 50 μl of loading buffer consisting of 1.5 μM Fluo-4 AM and […] (Sigma-Aldrich) in DMEM. […]

[1] = agonist not stated, read-out: IC50 when tested with the TAS2R44 bitter taste receptor
[2] = Acesulfame K (0.8 mM) as agonist, same range as example 3
[3] = saccharin (0.5 mM) as agonist, HEK293T cells expressing Gα16-gustducin44 and TAS2R44, read-out: IC50

| Structure (SMILES) | IC50 [1] | IC50 [2] | IC50 [3] |
| --- | --- | --- | --- |
| CCC[C@]12CC[C@](C(=O)O)(CC1)CC2 [cis-4-propylbicyclo[2.2.2]octane-1-carboxylic acid] | 0.1 to 20 µM | – | – |
| O=C(O)[C@H]1CC[C@@H](c2ccccc2)CC1 [cis-4-phenylcyclohexanecarboxylic acid] | 0.1 to 20 µM | – | – |
| O=C(O)[C@H]1CC[C@@H](Cc2ccccc2)CC1 [cis-4-benzylcyclohexanecarboxylic acid] | 0.1 to 20 µM | – | – |
| CCC(C)[C@H]1CC[C@@H](C(=O)O)CC1 (stereo partly drawn) [cis-4-sec-butylcyclohexanecarboxylic acid] | 0.1 to 20 µM | – | – |
| CC(C)CCC[C@H]1CC[C@@H](C(=O)O)CC1 [cis-4-(4-methylpentyl)cyclohexanecarboxylic acid] | 0.1 to 20 µM | – | – |
| CCC[C@H]1CC[C@@H](C(=O)O)CC1 [cis-4-propylcyclohexanecarboxylic acid] | 0.1 to 20 µM | within the same range | 0.05 to 25 µM |
| CC(C)(C)[C@H]1CC[C@@H](C(=O)O)CC1 [cis-4-tert-butylcyclohexanecarboxylic acid] | 0.1 to 20 µM | within the same range | 0.05 to 25 µM |
